Converted amounts (≈) assume the structure as drawn. Where two headings read alike, the source gives them in different places. Where a SMILES comes first, the peptide text is derived from it. [ ]: non-standard residue; d: D form.
How the values were obtained:
[1] = RP-HPLC retention time as measure of hydrophobicity; type: physicochemical; details: analytical Kromasil C18 column 4.6 mm × 250 mm, 5.0 μm, acetonitrile, flow 1.0 mL/min, used as measure of hydrophobicity
Description: The hydrophobicities of the peptides in solution were reliably mirrored by their high-performance liquid chromatography (HPLC)retention times. The retention times for peptide HI2, HW2, HV2, HF2, and PG-1 were 11.13, 10.55, 12.20, 18.06 and 12.56 min, respectively, indicating the following hydrophobic order: HF2 > PG-1 > HV2 > HI2 > HW2(Table 1).
The designed peptides were synthesized and purified by GL Biochem (Shanghai, China). Acetonitrile was used on an analytical Kromasil C18 column (4.6 mm × 250 mm, 5.0 μm, LC 3000, Beijing, China), and the purity of the peptides was determined to be greater than 95% via reversed-phase high-performance liquid chromatography (RP-HPLC) with a flow rate of 1.0 mL/min. The experimental molecular weights of the peptides were evaluated via ESI-MS analysis, and these values were very close to the calculated masses. Next, the peptides were dissolved in deionized water at a concentration of 2.56 mM, and the peptide solutions were stored at −20 °C.

[2] = LPS binding assay (BODIPY-TR-cadaverine displacement); set-up: species or system E. coli; details: peptide concentration higher than 4 μM; 50 μg/mL LPS, 5 μg/mL BODIPY-TR cadaverine, Tris 50 mM pH 7.4; 100% = 10 μg/mL polymyxin B
Description: The abilities of the antimicrobial peptides to bind LPS were determined using the fluorescent dye BODIPY-TR-cadaverine (BC) substitution method. LPS (50 μg/mL) from E. coli O111:B4 was incubated with BC (5 μg/mL) in Tris buffer (50 mm, pH 7.4) for 4 h. Next, 50 μL of various concentrations of peptides (final concentration of 1–64 μM) and 50 μL of LPS-BC mixture were added to 96-well plates, and the fluorescence was measured using a fluorescence spectrophotometer (Infinite 200 pro, Tecan, China) at an excitation wavelength of 580 nm and an emission wavelength of 620 nm. Each test was performed three times. The values were converted to %∆F (AU) using the following equation:%ΔF (AU) = [(Fobs − F0)/(F100 − F0)] × 100 where Fobs is the fluorescence value measured in the presence of the peptide, F0 is the initial fluorescence of LPS with BC without the addition of peptides, F100 is the fluorescence value produced by adding 10 μg/mL polymyxin B.

[3] = test system: human red blood cells (hRBCs); assay: Hemolytic activity; details: 1 h, OD 570 nm; for hemolysis rate: at the highest concentration (128 μM), 1% hRBC in PBS, 37 °C, 0.1% Triton X-100 positive control; for MHC, minimum hemolytic concentration: concentration causing 5% hemolysis of hRBC, 1% hRBC in PBS pH 7.4, 37 °C, repeated three times
Description: Briefly, collected human red blood cells (hRBCs) were washed three times with PBS (pH 7.4) and diluted to 1% in PBS. Next, equal volumes of blood cells were mixed with different peptide concentrations in 96-well plates followed by incubated at 37 °C for 1 h. The mixtures were centrifuged (1000 g, 5 min), and the supernatants were transferred to 96-well plates to measure the optical density (OD) at 570 nm. Untreated blood cells were used as negative controls, and 0.1% Triton X-100-treated blood cells were used as positive controls. The minimum peptide concentration corresponding to 5% hemolytic activity was defined as the minimal hemolytic concentration (MHC). These assays were independently repeated three times.

E. coli K88 = assay: microbe, parasite or virus in culture; details: E. coli K88; MHB, about 1 × 10^5 CFU/mL, 37 °C, 24 h; three independent experiments
Description: (§1) The minimum inhibitory concentration (MIC) was measured using a broth microdilution method to determine the in vitro antimicrobial activity of the peptides. Bacteria were inoculated into MHB and incubated overnight at 37 °C until the bacteria were in log phase growth. Next, we corrected the bacterial concentration to approximately 1 × 10^5 CFU/mL using MHB. The peptides were added to 96-well plates containing 0.01% acetic acid and 0.2% bovine serum albumin at final concentrations ranging from 0.25 to 128 μM. After incubation at 37 °C for 24 h, the absorbance was measured at 492 nm using a microplate reader (Tecan GENios F129004, Tecan, Austria). Broth containing microbes and […] were used as positive and negative controls, respectively. The lowest peptide concentration with no increase in absorbance compared to that of the negative control was defined as the MIC. The experiments were independently performed three times.

S. epidermidis ATCC12228 = assay: microbe, parasite or virus in culture
Description: as §1

S. aureus ATCC29213 = assay: microbe, parasite or virus in culture
Description: as §1

[4] = test system: methicillin-resistant S. aureus ATCC43300; assay: microbe, parasite or virus in culture
Description: as §1

E. coli K99 = assay: microbe, parasite or virus in culture; details: E. coli K99; MHB, about 1 × 10^5 CFU/mL, 37 °C, 24 h; three independent experiments
Description: as §1

S. pullorum C7913 = assay: microbe, parasite or virus in culture; details: C7913, 24 h
Description: as §1

P. aeruginosa ATCC27853 = assay: microbe, parasite or virus in culture
Description: as §1

E. coli ATCC25922 = assay: microbe, parasite or virus in culture; details: ATCC25922, 24 h
Description: as §1

E. coli UB1005 = assay: microbe, parasite or virus in culture; details: UB1005, 24 h
Description: as §1

Gram-negative bacteria = assay: MICs against Gram-negative strains (geometric mean, range); type: cell-based; details: Gram-negative strains; 256 μM used where no activity at 128 μM
Description: as §1

Gram-positive bacteria = test system: Gram-positive bacteria
Description: as §1

[5] = test system: Gram-positive and Gram-negative bacteria
Description: as §1

SMILES | Retention Time [1] | LPS binding ability relative to binding activity of polymyxin B [2] | hemolysis rate [3] | MHC, minimum hemolytic concentration [3] | MIC (E. coli K88) | MIC (S. epidermidis ATCC12228; ATCC12228, 24 h) | MIC (S. aureus ATCC29213; ATCC29213, 24 h) | MIC ([4]; ATCC43300, 24 h) | MIC (E. coli K99) | MIC (S. pullorum C7913) | MIC (P. aeruginosa ATCC27853; ATCC27853, 24 h) | MIC (E. coli ATCC25922) | MIC (E. coli UB1005) | MBC (GM), geometric mean of MICs, Gram (−) (Gram-negative bacteria) | MBC (GM), geometric mean of MICs, Gram (+) (Gram-positive bacteria; 24 h) | MBC (GM), geometric mean of MICs, Gram (+,−) ([5]; 24 h) | other results
N=C(N)NCCC[C@H](NC(=O)[C@H](CCCNC(=N)N)NC(=O)[C@H](Cc1c[nH]c2ccccc12)NC(=O)[C@H](Cc1c[nH]cn1)NC(=O)[C@H](Cc1c[nH]c2ccccc12)NC(=O)[C@H](Cc1c[nH]cn1)NC(=O)[C@H](Cc1c[nH]c2ccccc12)NC(=O)CNC(=O)[C@H]1CCCN1C(=O)[C@H](Cc1c[nH]c2ccccc12)NC(=O)[C@H](Cc1c[nH]cn1)NC(=O)[C@H](Cc1c[nH]c2ccccc12)NC(=O)[C@H](Cc1c[nH]cn1)NC(=O)[C@H](Cc1c[nH]c2ccccc12)NC(=O)[C@H](CCCNC(=N)N)NC(=O)[C@@H](N)CCCNC(=N)N)C(N)=O [HW2] (H-RRWHWHW[dP]GWHWHWRR-NH2; N-terminus assumed) | 10.55 min | higher than 60% | 15.58% | 8 µM | 4 µM (≈ 9.85 µg/mL) | 2 µM (≈ 4.92 µg/mL) | 4 µM (≈ 9.85 µg/mL) | 2 µM (≈ 4.92 µg/mL) | 4 µM (≈ 9.85 µg/mL) | 2 µM (≈ 4.92 µg/mL) | 8 µM (≈ 19.7 µg/mL) | 4 µM (≈ 9.85 µg/mL) | 2 µM (≈ 4.92 µg/mL) | 3.56 µM |  |  | MBC (GM), geometric mean of MICs, Gram (+) (Gram-positive bacteria; Gram-positive strains, 256 μM used where no activity at 128 μM): 2.52 µM; MBC (GM), geometric mean of MICs, Gram (+,−) ([5]; all strains, 256 μM used where no activity at 128 μM): 3.17 µM
N=C(N)NCCC[C@H](NC(=O)[C@H](CCCNC(=N)N)NC(=O)[C@H](Cc1ccccc1)NC(=O)[C@H](Cc1c[nH]cn1)NC(=O)[C@H](Cc1ccccc1)NC(=O)[C@H](Cc1c[nH]cn1)NC(=O)[C@H](Cc1ccccc1)NC(=O)CNC(=O)[C@H]1CCCN1C(=O)[C@H](Cc1ccccc1)NC(=O)[C@H](Cc1c[nH]cn1)NC(=O)[C@H](Cc1ccccc1)NC(=O)[C@H](Cc1c[nH]cn1)NC(=O)[C@H](Cc1ccccc1)NC(=O)[C@H](CCCNC(=N)N)NC(=O)[C@@H](N)CCCNC(=N)N)C(N)=O [HF2] (H-RRFHFHF[dP]GFHFHFRR-NH2; N-terminus assumed) | 18.06 min | higher than 60% | 30.46% | 16 µM | 2 µM (≈ 4.46 µg/mL) | 4 µM (≈ 8.91 µg/mL) | 64 µM (≈ 143 µg/mL) | 4 µM (≈ 8.91 µg/mL) | 4 µM (≈ 8.91 µg/mL) | 4 µM (≈ 8.91 µg/mL) | >128 µM | 4 µM (≈ 8.91 µg/mL) | 8 µM (≈ 17.8 µg/mL) | 8.00 µM | 10.08 µM | 8.64 µM | 
CC[C@H](C)[C@H](NC(=O)CNC(=O)[C@H]1CCCN1C(=O)[C@@H](NC(=O)[C@H](Cc1c[nH]cn1)NC(=O)[C@@H](NC(=O)[C@H](Cc1c[nH]cn1)NC(=O)[C@@H](NC(=O)[C@H](CCCNC(=N)N)NC(=O)[C@@H](N)CCCNC(=N)N)[C@@H](C)CC)[C@@H](C)CC)[C@@H](C)CC)C(=O)N[C@@H](Cc1c[nH]cn1)C(=O)N[C@H](C(=O)N[C@@H](Cc1c[nH]cn1)C(=O)N[C@H](C(=O)N[C@@H](CCCNC(=N)N)C(=O)N[C@@H](CCCNC(=N)N)C(N)=O)[C@@H](C)CC)[C@@H](C)CC [HI2] (H-RRIHIHI[dP]GIHIHIRR-NH2; N-terminus assumed) | 11.13 min | higher than 60% | 3.4% | >128 µM | 32 µM (≈ 64.8 µg/mL) |  |  |  | >128 µM | 16 µM (≈ 32.4 µg/mL) |  | 32 µM (≈ 64.8 µg/mL) | 16 µM (≈ 32.4 µg/mL) | 50.80 µM | 256 µM | 87.09 µM | MIC (S. epidermidis ATCC12228; S.epidermidis 12228, MHB, about 1 × 10^5 CFU/mL, 37 °C, 24 h, three independent experiments): >128 µM; MIC (S. aureus ATCC29213; S.aureus 29213, MHB, about 1 × 10^5 CFU/mL, 37 °C, 24 h, three independent experiments): >128 µM; MIC ([4]; S.aureus 43300 (methicillin-resistant), MHB, about 1 × 10^5 CFU/mL, 37 °C, 24 h, three independent experiments): >128 µM; MIC (P. aeruginosa ATCC27853; P. auruginosa 27853, MHB, about 1 × 10^5 CFU/mL, 37 °C, 24 h, three independent experiments): >128 µM

— publication PMC6718988, “Bioactivity and Bactericidal Mechanism of Histidine-Rich β-Hairpin Peptide Against Gram-Negative Bacteria” (International Journal of Molecular Sciences, 2019)
